Laboratory results as given in US20210395694A1, “METHOD FOR PROMOTING PRODUCTION OF EXOSOMES AND/OR EXTRACELLULAR VESICLES” (ExoCoBio Inc., priority 2019, published 2021).

Legend:
[1] = test system: Human adipose-derived stem cells; experiment: Exosome CD63 content by flow cytometry (PE MFI against a human CD63 standard curve); format: cell-based; settings: CD63 content per mL; compared to the untreated control group; FIG. 3
Experimental: Human adipose-derived stem cells were suspended in a-MEM culture medium containing 10% fetal bovine serum (FBS), 100 units/mL penicillin and 100 μg/mL streptomycin, and then seeded into a 6-well plate at a density of 6,000 cells/cm^2 and cultured in an incubator at 37° C. under 5% CO2. For ascorbic acid-treated groups, 24 hours after seeding, ascorbic acid was added to the culture medium at a concentration of 10 μg/mL, 30 μg/mL and 100 μg/mL, respectively.
In all of the ascorbic acid-treated groups and the untreated group, when the adipose-derived stem cells reached a confluency of 80% or more, the culture medium was replaced with α-MEM medium containing 100 units/mL penicillin and 100 μg/mL streptomycin (hereinafter referred to as “serum-free medium” or “SFM”), or α-MEM medium containing 2% FBS from which FBS-derived exosomes and extracellular vesicles have been removed, 100 units/mL penicillin and 100 μg/mL streptomycin (hereinafter referred to as “extracellular vesicles-depleted medium” or “EDM”). In the ascorbic acid-treated groups, ascorbic acid was added to each of the serum-free medium and the extracellular vesicles-depleted medium at a concentration of 10 μg/mL, 30 μg/mL and 100 μg/mL, respectively. […] After completion of recovery of the conditioned medium, the cells were counted using a cell counter. […]

[2] = test system: Human adipose-derived stem cells; experiment: Nanoparticle tracking analysis (NTA) of exosomes isolated from conditioned medium of stem cells cultured with ascorbic acid; format: cell-based
Experimental: Human adipose-derived stem cells were suspended in a-MEM culture medium containing 10% fetal bovine serum (FBS), 100 units/mL penicillin and 100 μg/mL streptomycin, and then seeded into a 6-well plate at a density of 6,000 cells/cm^2 and cultured in an incubator at 37° C. under 5% CO2. For ascorbic acid-treated groups, 24 hours after seeding, ascorbic acid was added to the culture medium at a concentration of 10 μg/mL, 30 μg/mL and 100 μg/mL, respectively. In all of the ascorbic acid-treated groups and the untreated group, when the adipose-derived stem cells reached a confluency of 80% or more, the culture medium was replaced with α-MEM medium containing 100 units/mL penicillin and 100 μg/mL streptomycin (hereinafter referred to as “serum-free medium” or “SFM”), or α-MEM medium containing 2% FBS from which FBS-derived exosomes and extracellular vesicles have been removed, 100 units/mL penicillin and 100 μg/mL streptomycin (hereinafter referred to as “extracellular vesicles-depleted medium” or “EDM”). […] After completion of recovery of the conditioned medium, the cells were counted using a cell counter. […] The particle size and concentration of the isolated exosomes were measured by nanoparticle tracking analysis (NTA) instrument (purchased from Malvern).

For `O=C1O[C@H]([C@@H](O)CO)C(O)=C1O` [ascorbic acid], the “content of the exosomes (i.e., the content of CD63)” value [1] was “remarkably increased”, the “productivity (i.e., the number of exosome particles per mL)” value ([2]; compared with the control group not treated with ascorbic acid, FIG. 2) was “increased by approximately four times or more” and the “particle size distribution of the exosomes” value ([2]; stem cells pre-treated and cultured in medium containing ascorbic acid vs medium not containing ascorbic acid, FIG. 1 (0, 30, 100 μg/mL)) was “more uniform particle size distribution”.
